Experimental data published in the NIST ThermoML archive (doi:10.1021/je100410k).
± gives the expanded uncertainty stated by the source.

Assay: activity coefficient (dimensionless); of the first substance listed, at infinite dilution; xn = mol fraction of the nth substance listed
Details: 101 kPa, Liquid, Chromatography, x1 = 0

| SMILES | activity coefficient (338.2 K) | activity coefficient (348.2 K) | activity coefficient (358.2 K) | activity coefficient (368.2 K) | activity coefficient (338.15 K) | activity coefficient (348.15 K) | activity coefficient (358.15 K) | activity coefficient (368.15 K) |
| --- | --- | --- | --- | --- | --- | --- | --- | --- |
| Cc1ccccc1C [1,2-dimethylbenzene] + CCCCn1cc[n+](C)c1.Cc1ccc(S(=O)(=O)[O-])cc1 | 4.07 ± 0.28 | 4.01 ± 0.27 | 3.96 ± 0.27 | 3.93 ± 0.27 |  |  |  |  |
| Cc1cccc(C)c1 [1,3-dimethylbenzene] + CCCCn1cc[n+](C)c1.Cc1ccc(S(=O)(=O)[O-])cc1 | 4.76 ± 0.32 | 4.67 ± 0.32 | 4.63 ± 0.32 | 4.58 ± 0.31 |  |  |  |  |
| Cc1ccc(C)cc1 [1,4-dimethylbenzene] + CCCCn1cc[n+](C)c1.Cc1ccc(S(=O)(=O)[O-])cc1 | 4.73 ± 0.32 | 4.64 ± 0.32 | 4.61 ± 0.31 | 4.56 ± 0.31 |  |  |  |  |
| C=CCCCCC [1-heptene] + CCCCn1cc[n+](C)c1.Cc1ccc(S(=O)(=O)[O-])cc1 | 24.2 ± 1.7 | 22.5 ± 1.5 | 21.5 ± 1.5 | 20.4 ± 1.4 |  |  |  |  |
| C#CCCCCC [1-heptyne] + CCCCn1cc[n+](C)c1.Cc1ccc(S(=O)(=O)[O-])cc1 | 5.13 ± 0.35 | 5.23 ± 0.36 | 5.34 ± 0.36 | 5.43 ± 0.37 |  |  |  |  |
| C#CCCCC [1-hexyne] + CCCCn1cc[n+](C)c1.Cc1ccc(S(=O)(=O)[O-])cc1 | 3.69 ± 0.25 | 3.78 ± 0.26 | 3.86 ± 0.26 | 3.94 ± 0.27 |  |  |  |  |
| C#CCCCCCC [1-octyne] + CCCCn1cc[n+](C)c1.Cc1ccc(S(=O)(=O)[O-])cc1 | 7.12 ± 0.49 | 7.28 ± 0.5 | 7.39 ± 0.5 | 7.15 ± 0.49 |  |  |  |  |
| C=CCCC [1-pentene] + CCCCn1cc[n+](C)c1.Cc1ccc(S(=O)(=O)[O-])cc1 | 13.7 ± 0.9 | 12.6 ± 0.9 | 11.9 ± 0.8 | 11.2 ± 0.8 |  |  |  |  |
| COC(C)(C)C [2-methoxy-2-methylpropane] + CCCCn1cc[n+](C)c1.Cc1ccc(S(=O)(=O)[O-])cc1 | 8.28 ± 0.56 | 7.84 ± 0.53 | 7.58 ± 0.52 | 7.37 ± 0.5 |  |  |  |  |
| CC(C)=O [acetone] + CCCCn1cc[n+](C)c1.Cc1ccc(S(=O)(=O)[O-])cc1 | 1.48 ± 0.1 | 1.46 ± 0.1 | 1.45 ± 0.1 | 1.42 ± 0.09 |  |  |  |  |
| c1ccccc1 [benzene] + CCCCn1cc[n+](C)c1.Cc1ccc(S(=O)(=O)[O-])cc1 | 1.96 ± 0.13 | 1.93 ± 0.13 | 1.93 ± 0.13 | 1.93 ± 0.13 |  |  |  |  |
| C1CCCCCC1 [cycloheptane] + CCCCn1cc[n+](C)c1.Cc1ccc(S(=O)(=O)[O-])cc1 | 17.7 ± 1.2 | 16.3 ± 1.1 | 15.4 ± 1.1 | 14.5 ± 1 |  |  |  |  |
| C1CCCCC1 [cyclohexane] + CCCCn1cc[n+](C)c1.Cc1ccc(S(=O)(=O)[O-])cc1 | 16.3 ± 1.1 | 14.6 ± 1 | 13.4 ± 0.9 | 12.5 ± 0.9 |  |  |  |  |
| C1CCCCCCC1 [cyclooctane] + CCCCn1cc[n+](C)c1.Cc1ccc(S(=O)(=O)[O-])cc1 | 21.3 ± 1.5 | 19.7 ± 1.3 | 18.6 ± 1.3 | 17.6 ± 1.2 |  |  |  |  |
| C1CCCC1 [cyclopentane] + CCCCn1cc[n+](C)c1.Cc1ccc(S(=O)(=O)[O-])cc1 | 11.3 ± 0.8 | 9.9 ± 0.7 | 9.3 ± 0.6 | 9 ± 0.6 |  |  |  |  |
| CCCCCCCCCC [decane] + CCCCn1cc[n+](C)c1.Cc1ccc(S(=O)(=O)[O-])cc1 | 119 ± 8.1 | 106 ± 7.3 | 98.3 ± 6.7 | 90.8 ± 6.2 |  |  |  |  |
| CCOCC [diethyl ether] + CCCCn1cc[n+](C)c1.Cc1ccc(S(=O)(=O)[O-])cc1 | 6.57 ± 0.45 | 6.36 ± 0.43 | 6.16 ± 0.42 | 5.93 ± 0.4 |  |  |  |  |

| SMILES | activity coefficient (338.2 K) | activity coefficient (348.2 K) | activity coefficient (358.2 K) | activity coefficient (368.2 K) | activity coefficient (338.15 K) | activity coefficient (348.15 K) | activity coefficient (358.15 K) | activity coefficient (368.15 K) |
| --- | --- | --- | --- | --- | --- | --- | --- | --- |
| CCCOCCC [dipropyl ether] + CCCCn1cc[n+](C)c1.Cc1ccc(S(=O)(=O)[O-])cc1 | 15.5 ± 1.1 | 15.2 ± 1 | 14.2 ± 1 | 13.6 ± 0.9 |  |  |  |  |
| CCO [ethanol] + CCCCn1cc[n+](C)c1.Cc1ccc(S(=O)(=O)[O-])cc1 | 0.359 ± 0.033 | 0.357 ± 0.033 | 0.358 ± 0.033 | 0.358 ± 0.033 |  |  |  |  |
| CCc1ccccc1 [ethylbenzene] + CCCCn1cc[n+](C)c1.Cc1ccc(S(=O)(=O)[O-])cc1 | 4.45 ± 0.3 | 4.4 ± 0.3 | 4.36 ± 0.3 | 4.32 ± 0.29 |  |  |  |  |
| CCCCCCC [heptane] + CCCCn1cc[n+](C)c1.Cc1ccc(S(=O)(=O)[O-])cc1 |  |  |  |  | 48.1 ± 3.3 | 42.2 ± 2.9 | 39.2 ± 2.7 | 36.6 ± 2.5 |
| C=CCCCC [hex-1-ene] + CCCCn1cc[n+](C)c1.Cc1ccc(S(=O)(=O)[O-])cc1 | 18 ± 1.2 | 16.6 ± 1.1 | 15.7 ± 1.1 | 14.9 ± 1 |  |  |  |  |
| CCCCCC [hexane] + CCCCn1cc[n+](C)c1.Cc1ccc(S(=O)(=O)[O-])cc1 |  |  |  |  | 36.3 ± 2.5 | 31.5 ± 2.2 | 29.2 ± 2 | 27.6 ± 1.9 |
| CO [methanol] + CCCCn1cc[n+](C)c1.Cc1ccc(S(=O)(=O)[O-])cc1 | 0.217 ± 0.029 | 0.219 ± 0.029 | 0.221 ± 0.029 | 0.223 ± 0.029 |  |  |  |  |
| CCCCCCCCC [nonane] + CCCCn1cc[n+](C)c1.Cc1ccc(S(=O)(=O)[O-])cc1 | 86.1 ± 5.9 | 77.5 ± 5.3 | 71.3 ± 4.9 | 66.5 ± 4.6 |  |  |  |  |
| C=CCCCCCC [oct-1-ene] + CCCCn1cc[n+](C)c1.Cc1ccc(S(=O)(=O)[O-])cc1 | 33.1 ± 2.3 | 31 ± 2.1 | 29.5 ± 2 | 28.2 ± 1.9 |  |  |  |  |
| CCCCCCCC [octane] + CCCCn1cc[n+](C)c1.Cc1ccc(S(=O)(=O)[O-])cc1 | 63.9 ± 4.4 | 57.7 ± 4 | 53 ± 3.6 | 49.6 ± 3.4 |  |  |  |  |
| CCCC(C)=O [pentan-2-one] + CCCCn1cc[n+](C)c1.Cc1ccc(S(=O)(=O)[O-])cc1 | 2.68 ± 0.18 | 2.64 ± 0.18 | 2.61 ± 0.18 | 2.58 ± 0.18 |  |  |  |  |
| CCC(=O)CC [pentan-3-one] + CCCCn1cc[n+](C)c1.Cc1ccc(S(=O)(=O)[O-])cc1 | 2.68 ± 0.18 | 2.65 ± 0.18 | 2.63 ± 0.18 | 2.6 ± 0.18 |  |  |  |  |
| CCCO [propan-1-ol] + CCCCn1cc[n+](C)c1.Cc1ccc(S(=O)(=O)[O-])cc1 | 0.437 ± 0.035 | 0.434 ± 0.035 | 0.437 ± 0.035 | 0.437 ± 0.035 |  |  |  |  |
| C1CCOC1 [tetrahydrofuran] + CCCCn1cc[n+](C)c1.Cc1ccc(S(=O)(=O)[O-])cc1 | 1.88 ± 0.13 | 1.87 ± 0.13 | 1.86 ± 0.13 | 1.85 ± 0.12 |  |  |  |  |
| c1ccsc1 [thiophene] + CCCCn1cc[n+](C)c1.Cc1ccc(S(=O)(=O)[O-])cc1 | 1.11 ± 0.07 | 1.13 ± 0.07 | 1.14 ± 0.07 | 1.16 ± 0.07 |  |  |  |  |
| Cc1ccccc1 [toluene] + CCCCn1cc[n+](C)c1.Cc1ccc(S(=O)(=O)[O-])cc1 | 3.03 ± 0.21 | 3.01 ± 0.2 | 2.99 ± 0.2 | 2.97 ± 0.2 |  |  |  |  |
| O [water] + CCCCn1cc[n+](C)c1.Cc1ccc(S(=O)(=O)[O-])cc1 | 0.191 ± 0.029 | 0.196 ± 0.029 | 0.201 ± 0.029 | 0.207 ± 0.029 |  |  |  |  |
